Values of other authors in patent US4335127A, “Piperidinylalkyl quinazoline compounds, composition and method of use” (Janssen Pharmaceutica, N.V., priority 1979, dated 1982).

Key:
[1] = test system: cyanosis of ears and extremities induced by compound 48/80 in rats; conditions: rats treated with compound 48/80; cited from earlier work
[2] = test system: lesions in the glandular area of the stomach and distension of the stomach induced by compound 48/80 in rats; conditions: rats treated with compound 48/80; cited from earlier work
Further: test concentration or dose not given here.

CN1C[C@H](CNC(=O)OCc2ccccc2)C[C@@H]2c3cccc4c3c(cn4C)C[C@H]21 [metergoline]
prevent completely: prevention of the cyanosis of ears and extremities (known serotonin antagonists) [1] | prevention of the abnormal gastric distension (known serotonin antagonists) [2] | prevention of the lesions in the glandular area of the stomach (known serotonin antagonists) [2]

NC(=O)C1(N2CCCCC2)CCN(CCCC(=O)c2ccc(F)cc2)CC1 [pipamperone]
prevent completely: prevention of the cyanosis of ears and extremities (known serotonin antagonists) [1] | prevention of the abnormal gastric distension (known serotonin antagonists) [2] | prevention of the lesions in the glandular area of the stomach (known serotonin antagonists) [2]

CC[C@@H](CO)NC(=O)[C@@H]1C=C2c3cccc4c3c(cn4C)C[C@H]2N(C)C1 [methysergide]
prevent completely: prevention of the cyanosis of ears and extremities (known serotonin antagonists) [1] | prevention of the abnormal gastric distension (known serotonin antagonists) [2] | prevention of the lesions in the glandular area of the stomach (known serotonin antagonists) [2]

CN(C)CCCSc1ccccc1NC(=O)/C=C/c1ccccc1 [cinanserin]
prevent completely: prevention of the cyanosis of ears and extremities (known serotonin antagonists) [1] | prevention of the abnormal gastric distension (known serotonin antagonists) [2] | prevention of the lesions in the glandular area of the stomach (known serotonin antagonists) [2]

CN1CCC(=C2c3ccccc3CCc3sccc32)CC1 [pizotifen]
prevent completely: prevention of the cyanosis of ears and extremities (known serotonin antagonists) [1] | prevention of the abnormal gastric distension (known serotonin antagonists) [2] | prevention of the lesions in the glandular area of the stomach (known serotonin antagonists) [2]

CN1CCN2c3ccccc3Cc3ccccc3C2C1 (stereo not drawn) [mianserin]
prevent completely: prevention of the cyanosis of ears and extremities (known serotonin antagonists) [1] | prevention of the abnormal gastric distension (known serotonin antagonists) [2] | prevention of the lesions in the glandular area of the stomach (known serotonin antagonists) [2]
